Measurements reported in patent US12282013B2, “Ex vivo methods of screening for, and characterizing, cardiac therapeutics using preloaded cardiac tissues” (NOVOHEART INTERNATIONAL LIMITED, priority 2018, dated 2025).

Columns and labels:
[1] = test system: human ventricular cardiac organoid chamber (hvCOC); test: hvCOC pressure-volume / developed pressure assay with preload; assay type: cell-based; settings: for area in the pressure-volume loops: absence of preload
Experimental: The hvCOC was made by a similar approach: Ten million hESC-vCMs and 1 million human foreskin fibroblasts were mixed with 1650 μl collagen gel (same relative composition as described above for hvCTS). The mixture was then cast into a 13-mm diameter cavity in a 2% agarose gel. A modified 6-Fr silicone balloon Foley catheter (Cook Medical) was then inflated and placed into the center of the bioreactor to form the inner boundary of the hvCOC. An 8 mm porous polyethylene ring (Fisher Scientific) and a 6 mm rubber ring were placed on top of the catheter to provide an hvCOC anchor. The polyethylene ring, rubber ring and the catheter were held by a metal tube with 3.9 mm outer diameter. The cell mixture was allowed to solidify for 2 hours in a 37° C., 5% CO2 incubator. Then, the solidified cell mixture was fed with 7 ml DMEM medium (high glucose) supplemented with 10% newborn calf serum. After 24 hours, the medium was aspirated and the agarose gel was removed. Twenty ml of medium was replenished and half of the medium was changed every 2 days. Further description of the hvCOC is provided in Example 5.
Human ventricular Cardiac Organoid Chamber (hvCOC) behavior was measured on day 10 post-fabrication. First, the catheter was deflated and removed. Then, the culture medium was replaced by phenol red-free DMEM (with 25 mM glucose and 25 mM HEPES). Rubber tubing was then filled with medium and used to connect the metal tube of the hvCOC apparatus to a medium tank. The hvCOC was electrically paced at 1.5 Hz (5V/cm) and the pressure-volume change resulting from the paced contractions was recorded for 30 seconds. Pressure was measured by a pressure sensor (Millar) placed inside the hvCOC, and associated area change of the hvCOC was captured by high-speed camera (Allied Vision). The medium tank level was then adjusted from 0 mm (relative to medium level of that in the hvCOC bioreactor), to 2.5, 5 and 7.5 mm above the medium level (representing 0, 2.5, 5 and 7.5 mm H2O preload). The measurements at all 4 preloads (0, 2.5, 5 and 7.5 mm H2O) were then repeated at each dose (0.01 and 0.1 μM) of levosimendan after a 5-minute incubation period.

[2] = test system: human ventricular cardiac tissue strip (hvCTS); test: hvCTS contractile force assay, unstretched, 1-Hz pacing; assay type: cell-based; settings: hvCTS paced at 1 Hz, increasing concentrations, responses described as blunted
Experimental: Seventy-two hours after dissociation, the hvCTS was made by mixing 1.3 million hESC-vCMs and 0.13 million human foreskin fibroblasts, together with 110 μl collagen gel comprising 1.67 mg/ml collagen and […] Matrigel. The cell mixture was then cast into a PDMS mold with two pillars and allowed to solidify for 2 hours in a 37° C., 5% CO2 incubator. Then, the cell mixture was fed with 7 ml DMEM medium (high glucose) supplemented with 10% newborn calf serum. Half of the medium was changed every 2 days.
On day 17 post-fabrication, human ventricular Cardiac Tissue Strips (hvCTS) were transferred from their molds and hooked to the force transducer unit and motor unit of an isolated muscle bath system (Aurora Scientific). The length of the hooked tissue was then adjusted to reach minimal developed tension, which was defined as the original length (Lo, or 0% Lmax) of the tissue. The hvCTS was then incubated in the bath at 37° C. for 10 minutes. Next, the hvCTS was electrically paced (at 5V/cm) at 1 Hz frequency, and stretched from 0 to 50% strain in 2.5% increments every 20 seconds. Recordings were made using Dynamic Muscle Control software (Aurora Scientific). The contractile parameters at each % strain, such as developed force, contractile rate and relaxation rate, were analyzed by Clampfit (Molecular Devices). The length with the maximum developed force was defined as Lmax. […]

SMILES	area in the pressure-volume loops ([1]; hvCOC)	contractile force [2]	increase in developed pressure ([1]; hvCOC, 5 mmH2O preload, 0.1 μM)	developed pressure, dose dependence ([1]; hvCOC, 7.5 mmH2O preload)	developed pressure ([1]; hvCOC, no preload (0 mmH2O), 1 μM)	response of hvCOC (developed pressure) ([1]; preload increased to 2.5 or 5 mmH2O)
CC(C)NCC(O)c1ccc(O)c(O)c1 (centres unmarked) [isoproterenol]	increase in area in the pressure-volume loops	trend of increasing contractile force	–	–	–	–
C[C@@H]1CC(=O)NN=C1c1ccc(NN=C(C#N)C#N)cc1 [levosimendan]	increase in area in the pressure-volume loops	trend of increasing contractile force	approximately 50%	did not show any significant dose-dependent increase	no increase in developed pressure	greatly enhanced the response
